The numbers were not newly measured in US20220273698A1, “MEDICINAL AND/OR PHARMACEUTICAL COMPOSITIONS FOR INTRAVESICAL INSTILLATION, PREPARATION AND USE THEREOF” (priority 2019, published 2022), which cites them from elsewhere.

For data set [1] the following is noted: taking PPS over a long time.
The conditions of data set [2]: oral medicine.

pentosan polysulfate sodium [Elmiron]: the side effect result in data set [1] is recorded as “pigmentary maculopathy”. Besides, in data set [2], the active agent absorbed was 5%.
